Assay results as given in patent US20210284621A1 (priority 2018, published 2021).

Assays:
CB2 receptor [1] = target: T1, CB2 receptor (Homo sapiens, UniProt P34972); test: CB2 competitive radioligand binding assay ([3H] WIN-55,212-2); set-up: expressed in transfected cells; host or cells: CHO-K1 cells; conditions: for Fold Selectivity (CB1/CB2): Table 3, ratio of Ki CB1/CB2
Method in brief: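 CHO-K1 cells expressing human recombinant CB2 were incubated with compound (0.05 μM, 1% DMSO) and 2.4 nM [3H]WIN-55,212-2 in 20 mM HEPES pH 7.0, 0.5% BSA for 90 min at 37 °C. Percent inhibition of radioligand binding was reported.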

[2] = system: 12 systems of human primary cells; test: BioMAP Diversity PLUS phenotypic screen; type: cell-based; conditions: 3.3 μM; for Immune modulation, cell surface and tissue remodeling biomarkers: changes at least 1.5-fold from vehicle control
Experimental: Compounds of the invention were assayed for their effects on 148 biomarkers of inflammation, immune modulation and tissue remodeling in the BioMAP® Diversity PLUS® (DiscoverX) platform designed to model aspects of human diseases in vitro (Kunkel 2004, Berg 2006, Melton 2013).
The example compounds (3.3 μM) in Table 8 induced increases or decreases in the levels of the indicated 20 biomarkers, which are at least 1.5-fold change from vehicle control and are outside the significance prediction envelop. All compounds presented in Table 8 were not cytotoxic at the concentration tested.

CB1 receptor [3] = target: T2, CB1 receptor (Homo sapiens, UniProt P21554); test: cAMP Assay #2: Hit Hunter cAMP assay, Gi-coupled agonist activity, CB1; type: cell-based; set-up: host or cells: PathHunter cell lines
LPS-induced PBMCs = test: Inflammatory cytokine release from LPS-induced PBMCs (Luminex); type: cell-based, human; conditions: fold change from LPS-treated PBMCs, compounds 10 μM (DEX 1 μg/ml) 2 h, then LPS 0.1 μg/ml 24 h, negative = reduced
Experimental: Compounds of the invention were assayed for their effect on inflammatory cytokine release from lipopolysaccharides (LPS)-induced PBMCs, isolated from a human blood sample, the results of which are provided in Table 7 as fold change. Exemplary methods for quantifying secretion of inflammatory cytokines in PBMCs are known in the art, for example, as described in Hailer et al., Infection and Immunity. 68(2):752-759 (2000); and Merlini et al., Frontiers in Immunology. 7:614 (2016); each of which is incorporated herein by reference with respect to methods for evaluating cytokine release in PBMCs.
In brief, human blood samples from healthy volunteers were collected and PBMCs were isolated. PBMCs were cultured and each compound was assayed in triplicate at a final concentration of 10 μM for 2 hours. 1 μg/ml dexamethasone (DEX) served as a positive control. LPS was added at a final concentration of 0.1 μg/ml and further incubated for 24 hours. At the end of the incubation, the supernatants were collected and the levels of a panel of secreted cytokines were measured by a Human Magnetic Luminex® assay (R&D). The results in Table 7 are presented as a fold change from LPS-treated PBMCs. Reduced levels are expressed by negative values. OOR denotes values that are out of the standard curve range for the specific cytokine and thus, could not be accurately measured. Cytotoxicity was also determined. Compounds with cytotoxicity ≥50% was considered cytotoxic. Baseline cytotoxicity of untreated PBMCs was 17% and all compounds presented in Table 7 induced cytotoxicity below 25%.

CB1 receptor [4] = target: T2, CB1 receptor; test: CB1 competitive radioligand binding assay ([3H] SR141716A); set-up: expressed in transfected cells; host or cells: Chem-1 cells
Method in brief: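 Chem-1 cells expressing human recombinant CB1 incubated 90 min at 37° C with 2.0 nM [3H]SR141716A and compound at 0.5 μM (1% DMSO) in HEPES pH 7.4 buffer with MgCl2, CaCl2, 0.2% BSA. Read-out is % inhibition of radioligand binding.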

CB2 receptor [5] = target: T1, CB2 receptor; test: cAMP Assay #2: Hit Hunter cAMP assay, Gi-coupled agonist activity, CB2; type: cell-based; set-up: host or cells: cAMP Hunter cell lines; conditions: for CB2 fold selectivity: Hit Hunter cAMP, CB1 EC50 / CB2 EC50
CB1 receptor [6] = target: T2, CB1 receptor; test: cell-based; set-up: host or cells: PathHunter cell lines
CB2 receptor [7] = target: T1, CB2 receptor; test: cell-based; set-up: host or cells: cAMP Hunter cell lines
Method in brief: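 PathHunter β-Arrestin enzyme fragment complementation cells, EA-tagged β-Arrestin and PK-tagged receptor, exposed to compound for 90 to 180 minutes at 37° C. or room temperature, 1% vehicle. Chemiluminescence read 1 h after detection reagent; agonist % activity relative to vehicle and MAX control ligand.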

CB2 receptor [8] = target: T1, CB2 receptor; test: cAMP Assay #1: CB2 adenylylcyclase assay in CHO cells; type: cell-based; set-up: expressed in transfected cells; host or cells: CHO cells
Experimental: (§1) Compounds of the invention were assayed in an adenylylcyclase assay to determine agonist activity on the CB1 and CB2 receptors, the results of which are provided in Table 4. Exemplary methods for the adenylylcyclase assay can be found in the literature, for example, in Rhee, M-H., et al. Cannabinol Derivatives: Binding to Cannabinoid Receptors and Inhibition of Adenylylcyclase. J Med Chem. 40: 3228-3233 (1997).
CB2 Activity as determined by Adenylylcyclase Assay: CB2 receptor agonist activity was measured by measuring cAMP production. A compound of the invention was incubated with CHO cells expressing human recombinant CB2 for 10 minutes at 37° C.
(§2) Determination of EC50 values: The EC50 values (concentration producing a half-maximal response) were determined by non-linear regression analysis of the concentration-response curves generated with mean replicate values using Hill equation curve fitting: Y=D+[(A−D)/(1+(C/C50)^nH)], where Y=response, A=left asymptote of the curve, D=right asymptote of the curve, C=compound concentration, and C50=EC50, and nH=slope factor. This analysis was performed using software developed at Cerep (Hill software) and validated by comparison with data generated by the commercial software SigmaPlot® 4.0 for Windows® (© 1997 by SPSS Inc.).

CB1 receptor [9] = target: T2, CB1 receptor; test: cAMP Assay #1: CB1 adenylylcyclase assay in CHO cells; type: cell-based; set-up: expressed in transfected cells; host or cells: CHO cells
Experimental: as §1
CB1 Activity as determined by Adenylylcyclase Assay: CB1 receptor agonist activity was measured by measuring cAMP production. A compound of the invention was incubated with CHO cells expressing human recombinant CB1 for 20 minutes at 37° C.
as §2

[10] = OOR = out of standard curve range
[11] = PathHunter agonist mode, read-out: CB2 Activity (β-Arrestin)

T2 sequence (P21554 whole entry): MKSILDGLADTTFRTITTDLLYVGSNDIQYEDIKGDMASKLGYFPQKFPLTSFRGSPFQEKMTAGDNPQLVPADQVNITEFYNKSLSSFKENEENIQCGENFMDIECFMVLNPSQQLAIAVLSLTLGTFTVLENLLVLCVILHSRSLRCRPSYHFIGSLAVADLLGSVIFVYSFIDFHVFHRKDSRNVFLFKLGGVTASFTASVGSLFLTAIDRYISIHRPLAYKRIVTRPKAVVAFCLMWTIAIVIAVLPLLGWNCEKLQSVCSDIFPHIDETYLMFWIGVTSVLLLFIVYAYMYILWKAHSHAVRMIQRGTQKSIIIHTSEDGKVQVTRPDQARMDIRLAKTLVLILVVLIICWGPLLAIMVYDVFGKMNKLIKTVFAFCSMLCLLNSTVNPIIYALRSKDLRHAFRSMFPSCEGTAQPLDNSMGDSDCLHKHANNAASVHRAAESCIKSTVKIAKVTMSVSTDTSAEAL
T1 sequence (P34972 whole entry): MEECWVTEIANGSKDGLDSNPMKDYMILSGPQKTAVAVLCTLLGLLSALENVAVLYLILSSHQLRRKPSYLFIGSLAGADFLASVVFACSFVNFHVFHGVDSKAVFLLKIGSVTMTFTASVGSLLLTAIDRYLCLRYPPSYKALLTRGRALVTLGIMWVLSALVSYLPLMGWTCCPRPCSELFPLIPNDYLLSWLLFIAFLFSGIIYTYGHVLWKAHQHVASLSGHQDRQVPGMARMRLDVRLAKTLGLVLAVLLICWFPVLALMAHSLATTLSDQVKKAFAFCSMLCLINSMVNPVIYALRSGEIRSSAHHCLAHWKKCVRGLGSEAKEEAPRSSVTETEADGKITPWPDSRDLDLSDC

CCCCCCC(C)(C)c1cc(O)c2c(c1)OC(C)(C)[C@@H]1CC=C(C(=O)NC(C)C)C[C@@H]21 [Compound 91, (6aR,10aR)-1-hydroxy-N-isopropyl-6,6-dimethyl-3-(2-methyloctan-2-yl)-6a,7,10,10a-tetrahydro-6H-benzo[c]chromene-9-carboxamide]
Ki (CB2 receptor [1]): 3.2 nM | Fold Selectivity (CB1/CB2) (CB2 receptor [1]): 10.9 | Immune modulation, cell surface and tissue remodeling biomarkers [2]: Reduced Eotaxin-3, P-selectin, CD69, and EGFR, IL-10 | EC50 (CB1 receptor [3]): 6.9 nM | IL17A (LPS-induced PBMCs): 1.2 fold change | IL-1β (LPS-induced PBMCs): −1.4 fold change | IL-4 (LPS-induced PBMCs): −1.6 fold change | IL-6 (LPS-induced PBMCs): −2.2 fold change | IL-8 (LPS-induced PBMCs): −1.3 fold change | IL-10 (LPS-induced PBMCs): −2.3 fold change | MCP-1 (LPS-induced PBMCs): −1.4 fold change | TNFα (LPS-induced PBMCs): −1.2 fold change | IL-12 (p70) (LPS-induced PBMCs; [10]): −1.7 fold change | L-31 (LPS-induced PBMCs; [10]): −2.1 fold change | Ki (CB1 receptor [4]): 34.8 nM | EC50 (CB2 receptor [5]): 1.5 nM | CB2 fold selectivity (CB2 receptor [5]): 4.5 | EC50 (CB1 receptor [6]): 20.9 nM | EC50 (CB2 receptor [7]): 1.7 nM

CCCCCCC(C)(C)c1cc(O)c2c(c1)OC(C)(C)[C@@H]1CC=C(C(=O)NC3CCCC3)C[C@@H]21 [Compound 92, (6aR,10aR)-N-cyclopentyl-1-hydroxy-6,6-dimethyl-3-(2-methyloctan-2-yl)-6a,7,10,10a-tetrahydro-6H-benzo[c]chromene-9-carboxamide]
Ki (CB2 receptor [1]): 3.8 nM | Fold Selectivity (CB1/CB2) (CB2 receptor [1]): 12.0 | Immune modulation, cell surface and tissue remodeling biomarkers [2]: Reduced P-selectin | EC50 (CB1 receptor [3]): 28.8 nM | Ki (CB1 receptor [4]): 45.7 nM | EC50 (CB2 receptor [5]): 1.6 nM | CB2 fold selectivity (CB2 receptor [5]): 17.7 | EC50 (CB1 receptor [6]): 17.3 nM | EC50 (CB2 receptor [7]): 1.4 nM

CCCCCCC(C)(C)c1cc(O)c2c(c1)OC(C)(C)[C@@H]1CC=C(C(=O)NC3CCC3)C[C@@H]21 [Compound 44, (6aR,10aR)-N-cyclobutyl-1-hydroxy-6,6-dimethyl-3-(2-methyloctan-2-yl)-6a,7,10,10a-tetrahydro-6H-benzo[c]chromene-9-carboxamide]
Ki (CB2 receptor [1]): 2.4 nM | Fold Selectivity (CB1/CB2) (CB2 receptor [1]): 14.0 | Immune modulation, cell surface and tissue remodeling biomarkers [2]: Reduced MCP-1, P-selectin, and IL-1α | Ki (CB1 receptor [4]): 33.5 nM | EC50 (CB1 receptor [6]; PathHunter agonist mode, read-out: CB1 Activity (β-Arrestin)): 11.1 nM | EC50 (CB2 receptor [7]; [11]): 1.6 nM

CCCCCCC(C)(C)c1cc(O)c2c(c1)OC(C)(C)[C@@H]1CC=C(C(=O)NC(C)=N)C[C@@H]21 [Compound 94, (6aR,10aR)-1-hydroxy-N-(1-iminoethyl)-6,6-dimethyl-3-(2-methyloctan-2-yl)-6a,7,10,10a-tetrahydro-6H-benzo[c]chromene-9-carboxamide]
Ki (CB2 receptor [1]): 12.6 nM | Fold Selectivity (CB1/CB2) (CB2 receptor [1]): 1.5 | Immune modulation, cell surface and tissue remodeling biomarkers [2]: Reduced MCP-1 and CD69; increased IL-1α | EC50 (CB1 receptor [3]): 7.9 nM | Ki (CB1 receptor [4]): 18.8 nM | EC50 (CB2 receptor [5]): 6.3 nM | CB2 fold selectivity (CB2 receptor [5]): 1.3 | EC50 (CB1 receptor [6]): 94.9 nM | EC50 (CB2 receptor [7]): 4.3 nM

CCCCCCC(C)(C)c1cc(O)c2c(c1)OC(C)(C)[C@@H]1CC=C(C(=O)N3CCCCC3)C[C@@H]21 [Compound 93, ((6aR,10aR)-1-hydroxy-6,6-dimethyl-3-(2-methyloctan-2-yl)-6a,7,10,10a-tetrahydro-6H-benzo[c]chromen-9-yl)(piperidin-1-yl)methanone]
Ki (CB2 receptor [1]): 31.9 nM | Fold Selectivity (CB1/CB2) (CB2 receptor [1]): 7.6 | Immune modulation, cell surface and tissue remodeling biomarkers [2]: Reduced Eotaxin-3, P-selectin, CD69, and M-CSF; increased IL-6 | Ki (CB1 receptor [4]): 243 nM | EC50 (CB1 receptor [6]): > 3000 nM | EC50 (CB2 receptor [7]; [11]): 3.1 nM

CCCCCCC(C)(C)c1cc(O)c2c(c1)OC(C)(C)[C@@H]1CC=C(C(=O)NC(C)(C)C(F)(F)F)C[C@@H]21 [Compound 100, (6aR,10aR)-1-hydroxy-6,6-dimethyl-3-(2-methyloctan-2-yl)-N-(1,1,1-trifluoro-2-methylpropan-2-yl)-6a,7,10,10a-tetrahydro-6H-benzo[c]chromene-9-carboxamide]
Ki (CB2 receptor [1]): 7.2 nM | Fold Selectivity (CB1/CB2) (CB2 receptor [1]): 10.0 | Anti-proliferation ([2]; cell type in which anti-proliferative effect was seen): Dermal fibroblasts | Immune modulation, cell surface and tissue remodeling biomarkers [2]: Reduced Eotaxin-3, P-selectin, and CD69, | EC50 (CB1 receptor [3]): 107 nM | Ki (CB1 receptor [4]): 72.3 nM | EC50 (CB2 receptor [5]): 2.1 nM | CB2 fold selectivity (CB2 receptor [5]): 49.7 | EC50 (CB1 receptor [6]): 257 nM | EC50 (CB2 receptor [7]; [11]): 1.2 nM

CCCCCCC(C)(C)c1cc(O)c2c(c1)OC(C)(C)c1ccc(C(=O)O)cc1-2 [Compound 31, 1-hydroxy-6,6-dimethyl-3-(2-methyloctan-2-yl)-6H-benzo[c]chromene-9-carboxylic acid]
EC50 (CB2 receptor [8]): 53 nM | Ki (CB2 receptor [1]): 2040 nM | inhibition at 0.05 µM (CB2 receptor [1]; 0.05 μM compound, 2.4 nM [3H] WIN-55,212-2, 90 min 37° C.): 20% | Immune modulation, cell surface and tissue remodeling biomarkers [2]: Reduced Eotaxin-3 and IP-10; increased MMP-1 | EC50 (CB1 receptor [3]): 636 nM | Ki (CB1 receptor [4]): > 3000 nM | inhibition at 0.5 µM (CB1 receptor [4]; 0.5 μM compound, 2.0 nM [3H] SR141716A, 90 min 37° C.): 12% | EC50 (CB2 receptor [5]): 68.4 nM | CB2 fold selectivity (CB2 receptor [5]): 9.3 | EC50 (CB1 receptor [6]): > 3000 nM | EC50 (CB1 receptor [9]): > 100 nM | EC50 (CB2 receptor [7]; [11]): 109 nM
